# According to publication PMC3527451, “A Pilot Randomized, Placebo Controlled, Double Blind Phase I Trial of the Novel SIRT1 Activator SRT2104 in Elderly Volunteers” (PLoS ONE, 2012):
# Entries after “also recorded” stand apart in the source; their conditions may differ.
# What was measured:
# [1] = system: elderly male and female volunteers; experiment: Modified oral glucose tolerance test (mOGTT); type: in vivo, human
# Procedure: The oral glucose tolerance test (OGTT) allows identification and monitoring of individuals with impaired glucose tolerance and to evaluate the pharmacological effects of glucose lowering agents, [21]. A mOGTT was performed at baseline and on day 29 to assess the pharmacodynamic effects of SRT2104 (or placebo) on glucose, insulin and C-peptide levels. On both occasion, after an overnight fast, subjects were asked to drink a standard glucose beverage containing 75 g of glucose. Blood sample were drawn 10 min before and just prior to the subject consuming the beverage. Additional blood samples were drawn at 10, 20, 30, 60, 90, 120 and 180 minutes after the subject had consumed the glucose beverage. Plasma level of glucose, insulin and C-peptide were measured at each time point. The maximum glucose level (Gmax) was determined, and the area under the plasma glucose concentration–time curve (AUCgluc) was calculated using the trapezoidal rule. AUCgluc60 was defined as the area under the curve from 0 to 60 min after glucose ingestion, the period during which plasma glucose concentration increases. The effects of SRT2104 (or placebo) on glucose, insulin and C-peptide levels and relative AUCs were calculated in each subject as the differences between values at baseline (screening) and after 28 daily administrations of the test material.
# [2] = system: elderly male and female volunteers; experiment: Maximal aerobic capacity test (incremental cycle ergometer); type: in vivo, human
# Procedure: A stepwise incremental exercise test was performed on a cycle ergometer (Monarch 874E, Monark Exercise AB, Vansbro, Sweden). All participants were familiarized to the test procedure on a separate occasion prior to testing. Participants were seated in a standardized position. The test started with unloaded cycling, subjects were asked to maintain a cadence of 50 revolutions per minute (rpm), if the subject could not achieve 50 rpm they were encouraged to cycle as fast as the could (but not less than 40 rpm). Every two minutes the external load on the cycle ergometer was increased by 0.5 kg, this equated to a 25-Watt increase in workload at 50 rpm. Cardiac monitoring of heart rate, respiratory rate/minute ventilation and pulse oximeter for oxygen saturation were continuously recorded during the test.
# Analysis of Maximal Aerobic Capacity parameters was performed using an ANOVA model with treatment group as a factor. Workload was progressed in 2-minute staged increments from an initial 3 minutes unloaded cycling, to exhaust subjects over a 6- to 10-min period. The test was terminated when the participant reached volitional exhaustion or their cadence dropped by 10 rpm. At the end of each increment, work-rate watts, rating of perceived exertion (Borg RPE scale), heart rate (Polar Vantage chest heart rate monitor, Polar Electro, Finland) and 3-lead ECG were recorded.
# [3] = system: rats and dogs; parameters: method as in ref 17, 18; SRT2104 Investigator's Brochure; conditions: acute safety pharmacology, doses up to 2.0 g/kg; SRT2104 Investigator's Brochure; cited from earlier work
# [4] = system: CYP2D6; conditions: human liver microsomes; cited from earlier work
# [5] = system: 39 common receptors; parameters: method as in SRT2104 Investigator's Brochure; conditions: in vitro; ref SRT2104 Investigator's Brochure; cited from earlier work
# [6] = system: DIO mice and ob/ob mice; conditions: cited from earlier work
# [7] = system: healthy male subjects; parameters: method as in SRT-2104-002; conditions: 250 mg oral suspension and intravenous microdose of 100µg 14C-SRT2104, eight healthy male subjects; ref SRT-2104-002; cited from earlier work
# [8] = once daily oral administration, ref SRT2104 Investigator's Brochure
smiles,measurement,setting,value
Cc1nc(-c2cccnc2)sc1C(=O)Nc1ccccc1-c1cn2c(CN3CCOCC3)csc2n1 [SRT2104],OGTT responses,[1]; 0.5 or 2.0 g for 28 days,No significant changes
same,rise of insulin and C-peptide and peak insulin concentration in OGTT,"[1]; 2.0 g/day, day 29 relative to baseline",trends to reduced rates in the rise of both insulin and C-peptide and a lower peak insulin concentration
same,insulin and C-peptide levels and relative AUCs in OGTT,[1]; baseline vs day 29,no statistically significant changes
same,"RPE, range of change from baseline","[2]; 0.5g/day, day 27",-3-6
same,"TTC, range of change from baseline","[2]; 0.5g/day, day 27",-106 to 67 s
same,"TTC, mean change from baseline (SD)","[2]; 0.5g/day, day 27, p 0.004",-31 (50) sec
same,"RPE, mean change from baseline (SD)","[2]; 0.5g/day, day 27, p 0.962",0 (3)
same,decrease in exercise capacity (time to cessation for the staged bicycle assessment),"[2]; 0.5 g/day, day 27, p = 0.004",4%
same,"RPE, range of change from baseline","[2]; 2.0g/day, day 27",-3-1
same,"TTC, range of change from baseline","[2]; 2.0g/day, day 27",-29 to 45 s
same,change in exercise capacity,"[2]; 2.0g/day, day 27",no evidence for any changes
same,"TTC, mean change from baseline (SD)","[2]; 2.0g/day, day 27, p 0.292",9 (27) sec
same,"RPE, mean change from baseline (SD)","[2]; 2.0g/day, day 27, p 0.638",-1 (2)
same,"central nervous system, cardiovascular system and pulmonary effects",[3],"no central nervous system (CNS), cardiovascular system (CVS) or pulmonary effects; also recorded: not associated with adverse central nervous system, cardiovascular system, or pulmonary effects"
same,inhibition of CYP2D6,[4],not an inhibitor; also recorded: does not inhibit
same,inhibitory activity against 39 common receptors,[5],no significant inhibitory activity
same,"cholesterol, LDL and triglycerides in preclinical models of dyslipidemia, diabetes and obesity",[6]; e.g. DIO and Lep ob/ob obese mice,"lower cholesterol, LDL and triglycerides"
same,glucose and insulin levels,"[6]; once daily oral 0.1 g/kg for 7 days or more, ref SRT2104 Investigator's Brochure",reduces glucose and insulin levels
same,body weight,[6]; [8],No effect on body weight
same,fasting blood glucose and fed insulin,[6]; [8],lowered
same,response to a glucose tolerance test,[6]; [8],enhanced the response to a glucose tolerance test
same,adverse reactions in mouse models of diabetes,"[6]; up to 0.3 g/kg orally once daily for 28 days, ref SRT2104 Investigator's Brochure",No adverse reactions
same,tolerability,[7],well-tolerated
